Assay results reported in US20100249138A1, “MPZP: A SMALL MOLECULE CORTICOTROPIN-RELEASING FACTOR TYPE 1 RECEPTOR (CRF1) ANTOGONIST” (priority 2007, published 2010).
Entries after “also recorded” stand apart in the source; their conditions may differ.

System: nicotine self-administration
Test: Nicotine self-administration, extended (23 hour) or limited (1 hour) access, nicotine deprivation effect
Type: in vivo, rat
Experimental: The apparatus and detailed procedures for both intravenous catheterization and self-administration of nicotine have been described previously [O'dell et al., Pharmacol. Biochem. Behay. (2007) 86:346-353]. Adult male Wistar rats (280 to 330 g) were first allowed to nose-poke for food and water in 23 hours sessions prior to and after recovery from surgical implantation of jugular catheters. Following acquisition of these operant responses, rats were allowed to self-administer nicotine (0.03 mg/kg/100 μl/1 s, free base, fixed ratio=1 lever-response, time out=20 seconds) under different paradigms. Rats were allowed to acquire nicotine self-administration during daily 1 hour, “short-access” sessions (ShA, n=10) for at least 10 days. The CRF1 antagonist MPZP (0, 5, 10, 20 mg/kg) was then administered using a Latin square design, with 1-2 intervening treatment-free days. After completion of Study B, rats were allowed to self-administer nicotine during daily 23 hours, “long-access” sessions (LgA, n=8) for at least 10 days. Then, they were allowed to respond on a lever for nicotine self-administration in 4 four-day cycles, each separated by three intervening days of abstinence in their home cage. MPZP was administered before the first session following each cycle of abstinence using a Latin square design.

COCCN(CCOC)c1cc(C)nc2c(-c3ccc(OC)cc3C)c(C)nn12 [MPZP, N,N-bis(2-methoxyethyl)-3-(4-methoxy-2-methylphenyl)-2,5-dimethyl-pyrazolo[1,5-a]pyrimidin-7-amine]
nicotine intake following abstinence (extended access (23 hour), 0, 5, 10, 20 mg/kg s.c., vs vehicle-treated): dose-dependently decreased | baseline nicotine self-administration responding (limited access to nicotine (1 hour), s.c.): had no effect; also recorded: lack of effect
